# Assays:
# Assay in all cases: relative viability (nuclei count vs DMSO), 5 days (fraction); higher = more cells survive
# [1] = system: COR-L 105
# Outline: (§1)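 Each reported value is a median over duplicate plates. It expresses relative viability: treated-well nuclei count divided by vehicle-well nuclei count. Lung cancer cell lines in 1536-well plates were dosed by pin tool a day after seeding, alone with one drug or with a fixed anchor-drug dose plus five library-drug doses (not always all listed) in √10 steps, and nuclei were counted after 5 days.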
# [2] = system: COR-L23
# Outline: as §1
# [3] = system: EKVX
# Outline: as §1
# [4] = system: HARA
# Outline: as §1
# [5] = system: HOP-62
# Outline: as §1
# [6] = system: NCI-H1355
# Outline: as §1
# [7] = system: NCI-H1395
# Outline: as §1
# [8] = system: NCI-H1734
# Outline: as §1
# [9] = system: NCI-H1755
# Outline: as §1
# [10] = system: NCI-H1793
# Outline: as §1
# [11] = system: NCI-H1993
# Outline: as §1
# [12] = system: NCI-H2009
# Outline: as §1
# [13] = system: NCI-H2170
# Outline: as §1
# [14] = system: NCI-H2228
# Outline: as §1
# [15] = system: NCI-H2342
# Outline: as §1
# [16] = system: NCI-H2347
# Outline: as §1
# [17] = system: NCI-H322M
# Outline: as §1
# [18] = system: NCI-H358
# Outline: as §1
# [19] = system: NCI-H522
# Outline: as §1
# [20] = system: NCI-H647
# Outline: as §1
# [21] = system: NCI-H838
# Outline: as §1
# [22] = system: PC-14
# Outline: as §1
# [23] = system: SK-MES-1
# Outline: as §1
# [24] = system: UMC-11
# Outline: as §1
structure (smiles),measurement,setting,value
CC(C)Oc1cc(Nc2nc(N[C@@H](C)c3ccc(F)cn3)ncc2Cl)n[nH]1 [AZ23] + O=C(CCCCCCC(=O)Nc1ccccc1)NO [Vorinostat] (partner 1 µM),relative viability,[1]; first compound 0.01 µM,0.698
same,relative viability,[1]; first compound 0.03162 µM,0.799
same,relative viability,[1]; first compound 0.3162 µM,0.841
same,relative viability,[2]; first compound 0.01 µM,0.164
same,relative viability,[2]; first compound 0.03162 µM,0.498
same,relative viability,[2]; first compound 0.3162 µM,0.424
same,relative viability,[3]; first compound 0.01 µM,0.811
same,relative viability,[3]; first compound 0.03162 µM,0.683
same,relative viability,[3]; first compound 0.3162 µM,0.675
same,relative viability,[4]; first compound 0.01 µM,0.58
same,relative viability,[4]; first compound 0.03162 µM,0.471
same,relative viability,[4]; first compound 0.3162 µM,0.383
same,relative viability,[5]; first compound 0.01 µM,0.527
same,relative viability,[5]; first compound 0.03162 µM,0.765
same,relative viability,[5]; first compound 0.3162 µM,0.733
same,relative viability,[6]; first compound 0.01 µM,0.672
same,relative viability,[6]; first compound 0.03162 µM,0.715
same,relative viability,[6]; first compound 0.3162 µM,0.633
same,relative viability,[7]; first compound 0.03162 µM,0.685
same,relative viability,[7]; first compound 0.3162 µM,0.799
same,relative viability,[8]; first compound 0.01 µM,0.64
same,relative viability,[8]; first compound 0.03162 µM,0.88
same,relative viability,[8]; first compound 0.3162 µM,1.06
same,relative viability,[9]; first compound 0.01 µM,0.854
same,relative viability,[9]; first compound 0.03162 µM,0.714
same,relative viability,[9]; first compound 0.3162 µM,0.805
same,relative viability,[10]; first compound 0.01 µM,0.679
same,relative viability,[10]; first compound 0.03162 µM,0.811
same,relative viability,[10]; first compound 0.3162 µM,0.892
same,relative viability,[11]; first compound 0.01 µM,0.634
same,relative viability,[11]; first compound 0.03162 µM,0.654
same,relative viability,[11]; first compound 0.3162 µM,0.814
same,relative viability,[12]; first compound 0.01 µM,0.704
same,relative viability,[12]; first compound 0.03162 µM,0.787
same,relative viability,[12]; first compound 0.3162 µM,0.793
same,relative viability,[13]; first compound 0.01 µM,0.958
same,relative viability,[13]; first compound 0.03162 µM,0.937
same,relative viability,[13]; first compound 0.3162 µM,0.906
same,relative viability,[14]; first compound 0.01 µM,0.72
same,relative viability,[14]; first compound 0.03162 µM,0.585
same,relative viability,[14]; first compound 0.3162 µM,0.628
same,relative viability,[15]; first compound 0.01 µM,0.619
same,relative viability,[15]; first compound 0.03162 µM,0.74
same,relative viability,[15]; first compound 0.3162 µM,0.686
same,relative viability,[16]; first compound 0.01 µM,0.446
same,relative viability,[16]; first compound 0.03162 µM,0.631
same,relative viability,[16]; first compound 0.3162 µM,0.587
same,relative viability,[17]; first compound 0.01 µM,0.674
same,relative viability,[17]; first compound 0.03162 µM,0.881
same,relative viability,[17]; first compound 0.3162 µM,0.93
same,relative viability,[18]; first compound 0.01 µM,0.631
same,relative viability,[18]; first compound 0.03162 µM,0.718
same,relative viability,[18]; first compound 0.3162 µM,0.758
same,relative viability,[19]; first compound 0.01 µM,0.939
same,relative viability,[19]; first compound 0.03162 µM,0.954
same,relative viability,[19]; first compound 0.3162 µM,0.934
same,relative viability,[20]; first compound 0.01 µM,0.935
same,relative viability,[20]; first compound 0.03162 µM,0.497
same,relative viability,[20]; first compound 0.3162 µM,0.591
same,relative viability,[21]; first compound 0.01 µM,0.768
same,relative viability,[21]; first compound 0.03162 µM,0.687
same,relative viability,[21]; first compound 0.3162 µM,0.626
same,relative viability,[22]; first compound 0.01 µM,0.284
same,relative viability,[22]; first compound 0.03162 µM,0.874
same,relative viability,[22]; first compound 0.3162 µM,0.905
same,relative viability,[23]; first compound 0.03162 µM,1.22
same,relative viability,[23]; first compound 0.3162 µM,1.2
same,relative viability,[24]; first compound 0.01 µM,0.281
same,relative viability,[24]; first compound 0.03162 µM,0.384
same,relative viability,[24]; first compound 0.3162 µM,0.357
CC(C)Oc1cc(Nc2nc(N[C@@H](C)c3ccc(F)cn3)ncc2Cl)n[nH]1 [AZ23] + O=C(c1cc(Cc2n[nH]c(=O)c3ccccc23)ccc1F)N1CCN(C(=O)C2CC2)CC1 [Olaparib] (partner 8 µM),relative viability,[1]; first compound 0.01 µM,0.609
same,relative viability,[1]; first compound 0.03162 µM,0.819
same,relative viability,[1]; first compound 0.3162 µM,0.665
same,relative viability,[2]; first compound 0.01 µM,0.272
same,relative viability,[2]; first compound 0.03162 µM,0.365
same,relative viability,[2]; first compound 0.3162 µM,0.34
same,relative viability,[3]; first compound 0.01 µM,0.912
same,relative viability,[3]; first compound 0.03162 µM,0.97
same,relative viability,[3]; first compound 0.3162 µM,0.895
same,relative viability,[4]; first compound 0.01 µM,0.292
same,relative viability,[4]; first compound 0.03162 µM,0.575
same,relative viability,[4]; first compound 0.3162 µM,0.969
same,relative viability,[5]; first compound 0.03162 µM,0.477
same,relative viability,[5]; first compound 0.3162 µM,0.379
same,relative viability,[6]; first compound 0.01 µM,0.808
same,relative viability,[6]; first compound 0.03162 µM,0.771
same,relative viability,[6]; first compound 0.3162 µM,0.699
same,relative viability,[7]; first compound 0.03162 µM,0.424
same,relative viability,[7]; first compound 0.3162 µM,0.452
same,relative viability,[8]; first compound 0.01 µM,0.628
same,relative viability,[8]; first compound 0.03162 µM,0.673
same,relative viability,[8]; first compound 0.3162 µM,0.6
same,relative viability,[9]; first compound 0.01 µM,0.962
same,relative viability,[9]; first compound 0.03162 µM,0.955
same,relative viability,[9]; first compound 0.3162 µM,1
same,relative viability,[10]; first compound 0.01 µM,0.756
same,relative viability,[10]; first compound 0.03162 µM,1.1
same,relative viability,[10]; first compound 0.3162 µM,0.85
same,relative viability,[11]; first compound 0.01 µM,1.08
same,relative viability,[11]; first compound 0.03162 µM,1.07
same,relative viability,[11]; first compound 0.3162 µM,1.01
same,relative viability,[12]; first compound 0.01 µM,0.814
same,relative viability,[12]; first compound 0.03162 µM,0.769
same,relative viability,[12]; first compound 0.3162 µM,0.79
same,relative viability,[13]; first compound 0.01 µM,0.649
same,relative viability,[13]; first compound 0.03162 µM,0.658
same,relative viability,[13]; first compound 0.3162 µM,0.619
same,relative viability,[14]; first compound 0.01 µM,0.53
same,relative viability,[14]; first compound 0.03162 µM,0.775
same,relative viability,[14]; first compound 0.3162 µM,0.589
same,relative viability,[15]; first compound 0.01 µM,0.413
same,relative viability,[15]; first compound 0.03162 µM,0.473
same,relative viability,[15]; first compound 0.3162 µM,0.399
same,relative viability,[16]; first compound 0.01 µM,0.579
same,relative viability,[16]; first compound 0.03162 µM,0.622
same,relative viability,[16]; first compound 0.3162 µM,0.604
same,relative viability,[17]; first compound 0.01 µM,0.564
same,relative viability,[17]; first compound 0.03162 µM,0.749
same,relative viability,[17]; first compound 0.3162 µM,0.741
same,relative viability,[18]; first compound 0.01 µM,0.72
same,relative viability,[18]; first compound 0.03162 µM,0.667
same,relative viability,[18]; first compound 0.3162 µM,0.664
same,relative viability,[19]; first compound 0.01 µM,0.667
same,relative viability,[19]; first compound 0.03162 µM,0.598
same,relative viability,[19]; first compound 0.3162 µM,0.641
same,relative viability,[20]; first compound 0.01 µM,0.68
same,relative viability,[20]; first compound 0.03162 µM,0.687
same,relative viability,[20]; first compound 0.3162 µM,0.812
same,relative viability,[21]; first compound 0.01 µM,0.905
same,relative viability,[21]; first compound 0.03162 µM,0.964
same,relative viability,[21]; first compound 0.3162 µM,0.721
same,relative viability,[22]; first compound 0.01 µM,0.189
same,relative viability,[22]; first compound 0.03162 µM,0.36
same,relative viability,[22]; first compound 0.3162 µM,0.296
same,relative viability,[23]; first compound 0.03162 µM,0.833
same,relative viability,[23]; first compound 0.3162 µM,0.764
same,relative viability,[24]; first compound 0.01 µM,0.392
same,relative viability,[24]; first compound 0.03162 µM,0.422
same,relative viability,[24]; first compound 0.3162 µM,0.372

# From the supplement of paper PMC10307832
